The values that follow are results of earlier work, collected in US20100280255A1, “PROCESS FOR MAKING SUBSTITUTED 2-AMINO-THIAZOLONES” (AMGEN INC., priority 2007, published 2010).

In data set [1] the test system is healthy human volunteers. Particulars: healthy human volunteers treated.
Data set [2] deals with bone nodule formation.
For data set [3], the system named is normal subjects. The note with it: ingestion.

For the molecule `CC1(C)[C@@H](OC(=O)CCC(=O)O)CC[C@]2(C)[C@H]3C(=O)C=C4[C@@H]5C[C@@](C)(C(=O)O)CC[C@]5(C)CC[C@@]4(C)[C@]3(C)CC[C@@H]12` [carbenoxolone], the hepatic insulin sensitivity result in data set [1] is reported as “improved”. Moreover, in data set [2], the “negative effect (of glucocorticoids) on bone nodule formation” value is recorded as “blocked”. Further, in data set [3], the “reduction of the intraocular pressure” value is listed as 20%.
